Laboratory results: patent US9637520B2, “Template-fixed peptidomimetics with CXCR7 modulating activity” (POLYPHOR AG, priority 2010, dated 2017)
Like-named read-outs stand apart in the source and are kept apart here. Starred links: 1 amine or outer side, 2 acyl side, 3 side chain; linkers in the order of their positions; H or OH if unused. Non-standard residues stand in square brackets, D forms with d. Residues, ends and D or L forms follow the SMILES beside them. *: point of attachment. X3 = O=C(N[C@H]1C[C@@H](C(=O)[*:2])N([*:1])C1)c1ccccc1; dPro(cis-4-NH2) = N[C@H]1CN[C@@H](C(=O)O)C1; dPro(4S-NH2) = N[C@@H]1CN[C@@H](C(=O)O)C1; Oic = O=C(O)[C@@H]1C[C@@H]2CCCC[C@@H]2N1; Pro(cis-4-F) = O=C(O)[C@@H]1C[C@H](F)CN1; 1Nal = N[C@@H](Cc1cccc2ccccc12)C(=O)O; Pro(3S-OH) = O=C(O)[C@H]1NCC[C@@H]1O; cisHyp = O=C(O)[C@@H]1C[C@H](O)CN1; Tic = O=C(O)[C@@H]1Cc2ccccc2CN1; Agb = N=C(N)NCC[C@H](N)C(=O)O; Agp = N=C(N)NC[C@H](N)C(=O)O; dDab = NCC[C@@H](N)C(=O)O; dPip = O=C(O)[C@H]1CCCCN1; hSer = N[C@@H](CCO)C(=O)O; Orn = NCCC[C@H](N)C(=O)O; Dab = NCC[C@H](N)C(=O)O; Bn = c1ccc(C*)cc1

Target: T1, CXCR7 (Homo sapiens, UniProt P25106)
T1 construct: host or cells: CHO (PathHunter CHO-CXCR7 β-arrestin cells)
T1 sequence (P25106 whole entry): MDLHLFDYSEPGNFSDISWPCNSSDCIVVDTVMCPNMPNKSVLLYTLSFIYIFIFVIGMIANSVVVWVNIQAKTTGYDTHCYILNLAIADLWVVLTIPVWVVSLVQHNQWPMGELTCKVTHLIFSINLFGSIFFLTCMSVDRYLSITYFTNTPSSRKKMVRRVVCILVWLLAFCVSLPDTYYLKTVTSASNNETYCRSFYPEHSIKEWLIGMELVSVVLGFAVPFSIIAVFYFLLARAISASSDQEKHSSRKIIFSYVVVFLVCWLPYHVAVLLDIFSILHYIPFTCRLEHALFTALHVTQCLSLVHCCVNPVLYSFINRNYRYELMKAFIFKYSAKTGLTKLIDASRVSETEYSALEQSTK
Assay: CXCR7 β-arrestin recruitment assay (PathHunter CHO-CXCR7, DiscoverX), agonistic assay
Type: cell-based
Procedure: Lyophilized peptides were weighed on a Microbalance (Mettler MX5) and dissolved in DMSO to a final concentration of 10 mM unless otherwise stated. Stock solutions were kept at +4° C., and protected from light.
2.2 CXCR7 β-Arrestin Recruitment Assay
The PathHunter CHO-CXCR7 (DiscoverX) assay was performed according to the manufacturer's protocol. In brief, CHO CXCR7 β-arrestin cells were seeded at a density of 5000 cells per well in 40 μl of F12 medium in black 96-half volume well culture plates and incubated overnight at 37° C. in a humidified atmosphere with 5% CO2. The next day, serial dilutions of PEM compounds have been prepared in DMSO and subsequently diluted in HBSS buffer containing 0.1% BSA.
For agonistic assay, 10 μl of compound solution or a solution of stromal cell-derived factor-1 (SDF-1) as positive control was added to the cells with a final DMSO concentration of 1% (v/v). The plate was incubated for 90 min at 37° C. in 5% CO2 incubator with gentle shaking (300 rpm) before addition of 40 μl of detection reagent per well. Reaction was developed for 90 min at room temperature in the dark with shaking, and chemiluminescence was measured with a Topcount (Perkin Elmer) luminescence counter.

[1] = agonistic assay, CHO CXCR7 β-arrestin cells, 90 min at 37° C., chemiluminescence, read-out: β-Arrestin EC50

SMILES	EC50 [1] [nM]	EC50 [nM]
CC[C@H](C)[C@@H]1NC(=O)[C@H]([C@@H](C)O)NC(=O)[C@H]2CCCN2C(=O)[C@H]([C@@H](C)CC)NC(=O)[C@H](CCCNC(=N)N)NC(=O)[C@@H](CCCNC(=N)N)NC1=O [Ex. 1, cyclo(-Ile-^DArg-Arg-Ile-^DPro-Thr-)] (cyclo(I[dP]TI[dR]R))	79.7 ± 99.7	–
CC[C@H](C)[C@@H]1NC(=O)[C@H]([C@@H](C)O)NC(=O)[C@H]2CCCN2C(=O)[C@H](Cc2ccc(O)cc2)NC(=O)[C@H](CCCNC(=N)N)NC(=O)[C@@H](CCCNC(=N)N)NC1=O [Ex. 2, cyclo(-Ile-^DArg-Arg-Tyr-^DPro-Thr-)] (cyclo(I[dR]RY[dP]T))	83.7 ± 77.4	–
CC[C@H](C)[C@@H]1NC(=O)[C@H]([C@@H](C)O)NC(=O)[C@H]2CCCN2C(=O)[C@H](Cc2c[nH]c3ccccc23)NC(=O)[C@H](CCN)NC(=O)[C@@H](CCCNC(=N)N)NC1=O [Ex. 4, cyclo(-Ile-^DArg-Dab-Trp-^DPro-Thr-)] (cyclo([Dab]W[dP]TI[dR]))	87 ± 84.1	–
CC[C@H](C)[C@@H]1NC(=O)[C@H]([C@@H](C)O)NC(=O)[C@H]2CCCN2C(=O)[C@H](Cc2c[nH]c3ccccc23)NC(=O)[C@H](CCCNC(=N)N)NC(=O)[C@@H](CCN)NC1=O [Ex. 5, cyclo(-Ile-^DDab-Arg-Trp-^DPro-Thr-)] (cyclo(I[dDab]RW[dP]T))	48.4 ± 67.5	–
CC[C@H](C)[C@@H]1NC(=O)[C@H]([C@@H](C)O)NC(=O)[C@H]2CCCN2C(=O)[C@H](Cc2ccccc2)NC(=O)[C@H](CCCNC(=N)N)NC(=O)[C@@H](CCCNC(=N)N)NC1=O [Ex. 6, cyclo(-Ile-^DArg-Arg-Phe-^DPro-Thr-)] (cyclo(F[dP]TI[dR]R))	46.4 ± 57.9	–
CC[C@H](C)[C@@H]1NC(=O)[C@H]([C@@H](C)O)NC(=O)[C@H]2CCCN2C(=O)[C@H](Cc2c[nH]c3ccccc23)NC(=O)[C@H](CCCNC(=N)N)NC(=O)[C@@H]([C@H](C)O)NC1=O [Ex. 7, cyclo(-Ile-^DThr-Arg-Trp-^DPro-Thr-)] (cyclo(I[dT]RW[dP]T))	53.2 ± 35.8	–
CC[C@H](C)[C@@H]1NC(=O)[C@H](CCO)NC(=O)[C@H]2CCCN2C(=O)[C@H](Cc2c[nH]c3ccccc23)NC(=O)[C@H](CCCNC(=N)N)NC(=O)[C@@H](CCCNC(=N)N)NC1=O [Ex. 8, cyclo(-Ile-^DArg-Arg-Trp-^DPro-hSer-)] (cyclo(I[dR]RW[dP][hSer]))	347 ± 10.3	–
CC[C@H](C)[C@@H]1NC(=O)[C@H]([C@@H](C)O)NC(=O)[C@H]2CCCN2C(=O)[C@H](CCCNC(=N)N)NC(=O)[C@H](Cc2c[nH]c3ccccc23)NC(=O)[C@@H](CCCNC(=N)N)NC1=O [Ex. 17, cyclo(-Ile-^DArg-Trp-Arg-^DPro-Thr-)] (cyclo(I[dR]WR[dP]T))	62.5 ± 1.8	–
C[C@@H](O)[C@@H]1NC(=O)[C@H]2CCCN2C(=O)[C@H](Cc2c[nH]c3ccccc23)NC(=O)[C@H](CCCNC(=N)N)NC(=O)[C@@H](CCCNC(=N)N)NC(=O)[C@H](Cc2c[nH]c3ccccc23)NC1=O [Ex. 20, cyclo(-Trp-^DArg-Arg-Trp-^DPro-Thr-)] (cyclo(RW[dP]TW[dR]))	538 ± 105	–
CC[C@H](C)[C@@H]1NC(=O)[C@@H]2[C@@H](O)CCN2C(=O)[C@H]2CCCN2C(=O)[C@H](Cc2c[nH]c3ccccc23)NC(=O)[C@H](CCCNC(=N)N)NC(=O)[C@@H](CCCNC(=N)N)NC1=O [Ex. 21, cyclo(-Ile-^DArg-Arg-Trp-^DPro-Pro((3S)OH)—)] (cyclo(I[dR]RW[dP][Pro(3S-OH)]))	123 ± 85.2	–
CC[C@H](C)[C@@H]1NC(=O)[C@H]([C@@H](C)O)NC(=O)[C@H]2CCCN2C(=O)[C@H](Cc2c[nH]c3ccccc23)NC(=O)[C@H](CNC(=N)N)NC(=O)[C@@H](CCCNC(=N)N)NC1=O [Ex. 23, cyclo(-Ile-^DArg-Agp-Trp-^DPro-Thr-)] (cyclo([Agp]W[dP]TI[dR]))	90.5 ± 60.7	–
N=C(N)NCCC[C@@H]1NC(=O)[C@H](Cc2c[nH]c3ccccc23)NC(=O)[C@@H](Cc2ccccc2)NC(=O)[C@H](Cc2c[nH]c3ccccc23)NC(=O)[C@@H]2C[C@H](F)CN2C(=O)[C@H]2CCCN2C1=O [Ex. 43, cyclo(-Trp-^DPhe-Trp-Arg-^DPro-Pro((4S)F)—)] (cyclo([Pro(cis-4-F)]W[dF]WR[dP]))	119 ± 42.3	–
N=C(N)NCCC[C@@H]1NC(=O)[C@@H]2C[C@H](OCc3ccccc3)CN2C(=O)[C@H]2CCCN2C(=O)[C@H](CCCNC(=N)N)NC(=O)[C@H](Cc2c[nH]c3ccccc23)NC(=O)[C@@H](Cc2ccccc2)NC1=O [Ex. 48, cyclo(-Arg-^DPhe-Trp-Arg-^DPro-(4S)-Hyp(Bn)-)] (cyclo(R[dF]WR[dP][cisHyp](Bn)))	76.9 ± 24.7	–
O=C(N[C@H]1C[C@H]2C(=O)N[C@@H](Cc3c[nH]cn3)C(=O)N[C@H](Cc3c[nH]c4ccccc34)C(=O)N[C@@H](Cc3c[nH]cn3)C(=O)N[C@@H](Cc3c[nH]c4ccccc34)C(=O)N3CCC[C@@H]3C(=O)N2C1)c1ccccc1 [Ex. 51, cyclo(-His-^DTrp-His-Trp-^DPro-Pro((4S)NHBz)-)] (cyclo(HW[dP][X3]H[dW]))	–	413 ± 225

Continued, in another order:

EC50 [1] [nM]	SMILES	EC50 [nM]
28.5 ± 12.6	C[C@@H](O)[C@@H]1NC(=O)[C@H]2CCCN2C(=O)[C@H](Cc2c[nH]c3ccccc23)NC(=O)[C@H](CCCNC(=N)N)NC(=O)[C@@H](CCCNC(=N)N)NC(=O)[C@H](Cc2cccc3ccccc23)NC1=O [Ex. 10, cyclo(-1Nal-^DArg-Arg-Trp-^DPro-Thr-)] (cyclo([1Nal][dR]RW[dP]T))	–
12.8 ± 3.5	CC[C@H](C)[C@@H]1NC(=O)[C@H](CO)NC(=O)[C@H]2CCCN2C(=O)[C@H](Cc2c[nH]c3ccccc23)NC(=O)[C@H](CCCNC(=N)N)NC(=O)[C@@H](CCCNC(=N)N)NC1=O [Ex. 22, cyclo(-Ile-^DArg-Arg-Trp-^DPro-Ser-)] (cyclo(I[dR]RW[dP]S))	–
22.3 ± 29.3	CC[C@H](C)[C@@H]1NC(=O)[C@H]([C@@H](C)O)NC(=O)[C@H]2CCCN2C(=O)[C@H](Cc2c[nH]c3ccccc23)NC(=O)[C@H](CCNC(=N)N)NC(=O)[C@@H](CCCNC(=N)N)NC1=O [Ex. 24, cyclo(-Ile-^DArg-Agb-Trp-^DPro-Thr-)] (cyclo([Agb]W[dP]TI[dR]))	–
17.5 ± 12.2	N=C(N)NCCC[C@@H]1NC(=O)[C@H](Cc2c[nH]c3ccccc23)NC(=O)[C@@H](Cc2ccccc2)NC(=O)[C@H](Cc2c[nH]c3ccccc23)NC(=O)[C@@H]2Cc3ccccc3CN2C(=O)[C@H]2C[C@H](N)CN2C1=O [Ex. 25, cyclo(-Trp-^DPhe-Trp-Arg-^DPro((4S)NH2)-Tic-)] (cyclo(R[dPro(4S-NH2)][Tic]W[dF]W))	–
26.1 ± 16.7	NCCC[C@@H]1NC(=O)[C@H](Cc2c[nH]c3ccccc23)NC(=O)[C@@H](Cc2ccccc2)NC(=O)[C@H](Cc2c[nH]c3ccccc23)NC(=O)[C@@H]2Cc3ccccc3CN2C(=O)[C@H]2C[C@@H](N)CN2C1=O [Ex. 29, cyclo(-Trp-^DPhe-Trp-Orn-^DPro((4R)NH2)-Tic-)] (cyclo([Orn][dPro(cis-4-NH2)][Tic]W[dF]W))	–
20.9 ± 33.7	N=C(N)NCCC[C@@H]1NC(=O)[C@H](Cc2c[nH]c3ccccc23)NC(=O)[C@@H](Cc2ccccc2)NC(=O)[C@H](Cc2c[nH]c3ccccc23)NC(=O)[C@@H]2C[C@@H]3CCCC[C@@H]3N2C(=O)[C@H]2C[C@@H](N)CN2C1=O [Ex. 41, cyclo(-Trp-^DPhe-Trp-Arg-^DPro((4R)NH2)-Oic-)] (cyclo([Oic]W[dF]WR[dPro(cis-4-NH2)]))	–
8.2 ± 3.4	CC[C@H](C)[C@@H]1NC(=O)[C@@H]2[C@@H](O)CCN2C(=O)[C@H]2CCCCN2C(=O)[C@H](Cc2c[nH]c3ccccc23)NC(=O)[C@H](CCCNC(=N)N)NC(=O)[C@@H](CCCNC(=N)N)NC1=O [Ex. 54, cyclo(-Ile-^DArg-Arg-Trp-^DPip-Pro((3S)OH)—)] (cyclo(I[dR]RW[dPip][Pro(3S-OH)]))	–
